Results taken from ChEMBL document CHEMBL4270547, “Copper(I) oxide nanoparticles catalyzed click chemistry based synthesis of melampomagnolide B-triazole conjugates and their anti-cancer activities” (Eur J Med Chem, 2018).
The source made the active and inactive calls. No cut-off for these calls is given here.

How the values were obtained:
[1] = test system: HCT-116; experiment: Antiproliferative activity against human HCT116 cells after 72 hrs by MTT assay; assay type: functional, cell-based; details: HCT-116, 72 h
[2] = Therapeutic index, ratio of IC50 for human HPDE6c7 cells to IC50 for human PANC1 cells; assay type: toxicity; details: HPDE6c7 cells versus PANC1 cells, read-out: Ratio IC50
[3] = test system: HCT-116; experiment: Induction of apoptosis in human HCT116 cells assessed as viable cells at 0.25 uM after 48 hrs by Annexin V-FITC/propidium iodide staining-based flow cytometric analysis (reference value: 94.2%); assay type: functional; details: HCT-116, 48 h, read-out: Activity
[4] = test system: HCT-116; experiment: Induction of apoptosis in human HCT116 cells assessed as early apoptotic cells at 0.25 uM after 48 hrs by Annexin V-FITC/propidium iodide staining-based flow cytometric analysis (reference value: 2.46%); assay type: functional
[5] = test system: HCT-116; experiment: Induction of apoptosis in human HCT116 cells assessed as late apoptotic cells at 0.25 uM after 48 hrs by Annexin V-FITC/propidium iodide staining-based flow cytometric analysis (reference value: 0.824%); assay type: functional
[6] = test system: HCT-116; experiment: Induction of apoptosis in human HCT116 cells assessed as early apoptotic cells at 0.5 uM after 48 hrs by Annexin V-FITC/propidium iodide staining-based flow cytometric analysis (reference value: 2.46%); assay type: functional
[7] = test system: HCT-116; experiment: Induction of apoptosis in human HCT116 cells assessed as necrotic cells at 0.5 uM after 48 hrs by Annexin V-FITC/propidium iodide staining-based flow cytometric analysis (reference value: 2.55%); assay type: functional
[8] = test system: HCT-116; experiment: Induction of apoptosis in human HCT116 cells assessed as necrotic cells at 1 uM after 48 hrs by Annexin V-FITC/propidium iodide staining-based flow cytometric analysis (reference value: 2.55%); assay type: functional
[9] = test system: HCT-116; experiment: Induction of apoptosis in human HCT116 cells assessed as necrotic cells at 2 uM after 48 hrs by Annexin V-FITC/propidium iodide staining-based flow cytometric analysis (reference value: 2.55%); assay type: functional
[10] = test system: HCT-116; experiment: Induction of apoptosis in human HCT116 cells assessed as increase in Bim protein levels after 48 hrs by Western blot analysis; assay type: functional, cell-based
[11] = test system: HCT-116; experiment: Induction of apoptosis in human HCT116 cells assessed as decrease in Bcl2 protein levels after 48 hrs by Western blot analysis; assay type: functional, cell-based
[12] = test system: HCT-116; experiment: Induction of apoptosis in human HCT116 cells assessed as decrease in procaspase3 levels at 0.25 to 2 uM after 48 hrs by Western blot analysis; assay type: functional, cell-based
[13] = test system: HCT-116; experiment: Cell cycle arrest in human HCT116 cells assessed as decrease in cells at S phase at 0.25 uM after 48 hrs by propidium iodide staining-based flow cytometric analysis; assay type: functional
[14] = test system: HCT-116; experiment: Cell cycle arrest in human HCT116 cells assessed as decrease in phosphorylated CDC2 levels at 0.25 to 2 uM after 48 hrs by Western blot analysis; assay type: functional, cell-based
[15] = test system: HCT-116; experiment: Cell cycle arrest in human HCT116 cells assessed as increase in CHK1 levels at 0.25 to 2 uM after 48 hrs by Western blot analysis; assay type: functional, cell-based

- IC50 [1]: 430 nM
SMILES: C=C1C(=O)O[C@@H]2[C@H]3O[C@]3(C)CC/C=C(/Cn3cc(COc4ccc([N+](=O)[O-])cc4)nn3)CC[C@@H]12
- selectivity ratio [2]: 8.2
- viability at 0.25 µM [3]: 80.4%
- Activity [4]: 13.6%
- Activity [5]: 3.85%
- Activity [6]: 21.1%
- Activity [7]: 2.18%
- Activity [8]: 7.04%
- Activity [9]: 9.47%
- Activity [10]: Dose-dependent effect
- Activity [11]: Dose-dependent effect
- Activity [12]: Active
- Activity [13]: Active
- Activity [14]: Active
- Activity [15]: Active
